Experiment [1] has as its target T1, human pancreatic lipase (Homo sapiens, UniProt P16233).
T1 sequence (P16233 17-465): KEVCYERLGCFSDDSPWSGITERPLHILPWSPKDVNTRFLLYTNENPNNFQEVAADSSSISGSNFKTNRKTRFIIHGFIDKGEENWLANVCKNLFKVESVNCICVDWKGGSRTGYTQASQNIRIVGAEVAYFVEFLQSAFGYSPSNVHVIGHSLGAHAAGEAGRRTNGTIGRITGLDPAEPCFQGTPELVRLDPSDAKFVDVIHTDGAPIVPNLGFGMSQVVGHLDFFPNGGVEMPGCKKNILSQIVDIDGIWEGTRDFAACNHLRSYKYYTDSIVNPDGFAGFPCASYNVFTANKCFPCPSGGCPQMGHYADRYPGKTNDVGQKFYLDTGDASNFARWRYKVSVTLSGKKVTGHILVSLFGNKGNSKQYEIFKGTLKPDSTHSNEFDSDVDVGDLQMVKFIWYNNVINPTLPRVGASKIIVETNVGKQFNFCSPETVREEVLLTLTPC
Description: Lipase activity, quinine diimine dye colorimetric assay (Sigma Lipase-PS). The format is biochemical. As to the method: Measurement of Lipase Activity Using a Quinine Diimine Dye Calorimetric Assay
The inhibitory activity of the selected compounds to pancreatic lipase was measured in the following assay available from Sigma Ltd (Lipase-PS™, catalog number 805-A):
The glycerol released from the action of pancreatic and monoglyceride lipase was oxidised to release H2O2. The peroxidase reaction step then produces a quinine dye which is pink in colour and absorbs light at a wavelength of 550 nm.
Individual test compounds were dissolved in DMSO (dimethyl sulphoxide) at 10 mM. DMSO was used to avoid any problems with compounds being water-insoluble.
For individual compounds, the IC50 (concentration at which lipase activity is inhibited to one half of the maximum) was calculated by measuring the inhibitory activity from log-dose response curves using a range of inhibitor concentrations.
A range of standard compounds were assayed in the quinine dye calorimetric assay which provides a rapid method to measure lipase inhibitory activity.

Experiment [2] has as its target T2, porcine pancreatic lipase (Sus scrofa, UniProt P00591).
T2 sequence (P00591 1-450): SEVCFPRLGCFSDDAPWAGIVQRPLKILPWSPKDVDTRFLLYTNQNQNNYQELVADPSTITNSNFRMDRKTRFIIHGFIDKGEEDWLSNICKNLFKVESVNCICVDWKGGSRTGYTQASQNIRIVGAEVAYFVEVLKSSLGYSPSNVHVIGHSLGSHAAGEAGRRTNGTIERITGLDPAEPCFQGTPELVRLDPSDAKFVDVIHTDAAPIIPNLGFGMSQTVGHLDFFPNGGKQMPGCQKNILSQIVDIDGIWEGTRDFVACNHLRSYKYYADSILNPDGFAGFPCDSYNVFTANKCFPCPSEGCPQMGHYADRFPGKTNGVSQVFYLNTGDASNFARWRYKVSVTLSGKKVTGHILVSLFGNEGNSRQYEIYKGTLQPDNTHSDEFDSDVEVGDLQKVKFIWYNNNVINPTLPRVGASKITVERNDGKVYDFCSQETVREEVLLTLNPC
The experiment can be described thus: Lipase enzyme activity, NaOH titration method (lipid micelles). The format is biochemical. The following applies: NaOH titration assay. As to the method: Measurement of Lipase Enzyme Activity Using a NaOH Titration Method
The inhibitory activity of the selected compound to pancreatic lipase was measured in the assay described in Pasquier et al; 1996, Vol 7, Nutritional Biochemistry, 293-302.
Log dose/response curves were constructed using a range of inhibitor concentrations.
Selected thieno-oxazinone compounds were tested in the NaOH titration assay. In this assay, the activity of porcine pancreatic lipase in a system containing lipid micelles is recorded. These conditions are therefore similar to those encountered in the gastrointestinal tract.

By IC50 is commonly meant the point on the concentration scale where inhibition reaches its midpoint. Low readings indicate inhibition by little substance, high ones a need for much substance. `CCCCNc1nc2sc(C)cc2c(=O)o1` [Compound 47, 2-Butylamino-6-methyl-4H-thieno[2,3-d][1,3]oxazin-4-one]: the values for the 50% inhibitory concentration (IC50) in experiment [1] and in experiment [2] were less than 0.1 µM and not above 1 µM, respectively.

Regarding `O=c1oc(Nc2ccc(Oc3ccccc3)cc2)nc2sc(Cl)cc12` [Compound 48, 6-Chloro-2-(4-phenoxy)phenylamino-4H-thieno[2,3-d][1,3]oxazin-4-one], the half-maximal inhibitory concentration (IC50) in experiment [1] is less than 0.1 µM; in experiment [2] it was not above 1 µM.

Consider `CCCCCCCCCCCCc1cc2c(=O)oc(Nc3ccc(Oc4ccccc4)cc3)nc2s1` [Compound 49, 6-Dodecyl-2-(4-phenoxy)phenylamino-4H-thieno[2,3-d][1,3]oxazin-4-one], for which the IC50 is less than 0.1 µM in experiment [1] and not above 1 µM in experiment [2].

Consider `O=c1oc(Nc2ccc(Oc3ccccc3)cc2)nc2sc(Cc3ccccc3)cc12` [Compound 50, 6-Phenylmethyl-2-(4-phenoxy)phenylamino-4H-thieno[2,3-d][1,3]oxazin-4-one], for which the values for the IC50 in experiment [1] and in experiment [2] were less than 0.1 µM and not above 1 µM, respectively.
